Peptide text beside a SMILES is read from it.
Key:
SCC12B.2 cells = type: cell-based, human; conditions: 5-FU alone, concentration printed as 2004, FIG. 1D
Procedure: Human skin cancer cell lines (SCC12B.2, SCC13, SRB12) were maintained in Dulbecco's modified Eagle's medium (DMEM) (Invitrogen, Carlsbad, Calif., USA) supplemented with 1% penicillin (10 000 U/ml)-streptomycin (10 000 μg/ml) (PenStrep) (Invitrogen) and 10% fetal bovine serum (Gemini Bio-Products, Sacramento, Calif., USA) at 37° C. and 5% CO2. Normal human epidermal keratinocytes (nHEK) (Thermo Scientific, Waltham, Mass., USA) isolated from neonatal foreskin were cultured in EpiLife medium (Invitrogen) supplemented with human keratinocyte growth supplement (Invitrogen) and 1% PenStrep (Invitrogen). Cells were transfected with control pcDNA or pcDNA3.1-HA-14-3-3ε (Addgene plasmid #48797; http://n2t.net/addgene:48797; RRID:Addgene_48797) using Lipofectamine/Plus reagents (Life Technologies, Carlsbad, Calif., USA) or with siRNA targeting 14-3-3ε (Dharmacon, Lafayette, Colo., USA), 14-3-3γ (Dharmacon), 14-3-3ζ, (Dharmacon), Survivin (Cell Signaling, Danvers, Mass., USA), Akt (Dharmacon) or control siRNA (Santa Cruz Biotechnology, Dallas, Tex., USA) using siQuest transfection reagents (Mirus Bio, Madison, Wis., USA) or treated with Akt inhibitor GSK690693 (Tocris Bioscience, Bristol, United Kingdom) or cell cycle inhibitor 5-Fluorouracil (5-FU) (Thermo Fisher) resuspended in DMSO.
To determine the half maximal inhibitory concentration (IC50) for ES1P2 in SCC12B.2 and nHEK cells, cells were plated in a 96-well plate at a density of 6×10^3 cells/well. Twenty-four hours after plating, cells were treated with increasing concentrations of ES1P2 (0-75 μM) in Opti MEM medium supplemented with reduced serum (Invitrogen) for 4 consecutive days. ES1P2 peptide was resuspended fresh, daily in 25 mM Tris buffer (pH 7.5). Neutral Red Cell Viability assays were performed, where absorbance was measured using a Cytation 5 multi-mode plate reader (BioTek). The experiment was repeated three separate times with 4 replicate wells per experiment to obtain an average IC50 value.
Carcinoma human cell lines (SCC12B.2 and SCC13) were maintained in Dulbecco's modified Eagle's medium (DMEM) (Invitrogen, Carlsbad, Calif., USA) supplemented with 1% penicillin (10 000 U/ml)-streptomycin (10 000 μg/ml) (PenStrep) (Invitrogen) and 10% fetal bovine serum (Gemini Bio-Products, Sacramento, Calif., USA) at 37° C. and 5% CO2. Primary normal human epidermal keratinocytes (nHEK) (Thermo Fisher Scientific, Waltham, Mass., USA) isolated from neonatal foreskin were maintained in EpiLife medium (Invitrogen) supplemented with human keratinocyte growth supplement (HKGS) and 1% PenStrep. nHEK cells were not passaged more than twice before experiments. Cells were treated with CDC25A inhibitor NSC663284 (Tocris Bioscience, Bristol, United Kingdom) suspended in DMSO, transfected with wild type CDC25A or control plasmid using Lipofectamine/Plus transfection reagents (Life Technologies, Carlsbad, Calif., USA) or transfected with siRNA targeting 14-3-3 ε or control siRNA (Santa Cruz Biotechnology, Dallas, Tex., USA) using siQuest transfection reagents (Mirus Bio, Madison, Wis., USA).
To determine the half maximal inhibitory concentration (IC50) for pS and pT in SCC12B.2 cells, cells were plated in a 96-well plate at a density of 6×10^3 cells/well. […] Neutral Red Cell Viability assays were performed, where absorbance was measured using a Cytation 5 multi-mode plate reader (BioTek). […]

14-3-3ε protein = molecular target: T1, 14-3-3ε protein (Homo sapiens, UniProt P62258); experiment: Differential scanning fluorimetry (DSF) binding; conditions: 7 μM 14-3-3ε, ΔTm vs peptide concentration, Hill fit; read-out: Kd, binding affinity to 14-3-3ε protein (DSF)
T1 sequence (P62258 1-255): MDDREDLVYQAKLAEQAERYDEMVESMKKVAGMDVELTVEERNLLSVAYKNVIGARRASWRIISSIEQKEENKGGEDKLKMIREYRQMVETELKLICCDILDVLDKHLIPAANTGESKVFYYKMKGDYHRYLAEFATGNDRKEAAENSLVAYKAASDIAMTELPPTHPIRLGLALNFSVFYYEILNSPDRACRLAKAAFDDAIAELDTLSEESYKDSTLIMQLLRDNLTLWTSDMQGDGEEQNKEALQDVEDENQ
Procedure: Differential scanning fluorimetry (DSF) experiments were performed using BioRad CFX384 Real-Time qPCR attached with C1000 Touch Thermo Cycler in the FRET channel. 7 μM subunits of 14-3-3ε protein, ten molar excess of Sypro Orange and 20 mM Tris-HCl, pH 7.4 assay buffer were used in all the melting experiments. Stock solution of peptides were prepared by dissolving 1 mg of lyophilized peptides in 20 mM Tris, pH 7.4 buffer and 0.1 μM to 200 μM dilution series were prepared. Protein melting experiments were performed both in the absence and the presence of increasing concentration of peptides. 15 μL of each samples (in triplicate) were put into each well of a 384-well white PCR plate and sealed with optical adhesive sealer (BioRad MSB-1001) and any air-bubble in the solutions were removed by spinning the plate vertically with PCR plate spinner (Labnet MPS 1000) at 1000 RPM for 3 minutes. The temperature was increased from 25° C. to 95° C. at a rate of 0.7° C. per minute. Melting temperatures of each well were determined using the CFX Maestro software version 2.0 by plotting the first derivative of fluorescence signal against temperature. All the measurements were performed in triplicate and the deviations of melting temperatures (ΔTm) presented for each samples were calculated relatively to three control samples (7 μM 14-3-3ε in the absence of the peptide). Binding constant (Kd) for each peptide was calculated by plotting ΔTm against peptide concentration and data points were fitted with Hill's equation using GraphPad 9.0 software.

Row | Compound | SCC cells alive (SCC12B.2 cells) | Kd (14-3-3ε protein)
1 | O=c1[nH]cc(F)c(=O)[nH]1 [5-FU, 5-Fluorouracil, reference compound] | 71.5 % alive | 
2 | CC(=O)N[C@@H](CCCNC(=N)N)C(=O)N[C@H](C(=O)N[C@@H](CCCCN)C(=O)N[C@@H](CO)C(=O)N[C@@H](CCCNC(=N)N)C(=O)N[C@H](C(=O)N[C@@H](Cc1ccc(O)cc1)C(=O)N[C@@H](C)C(=O)NCC(N)=O)[C@@H](C)OP(=O)(O)O)[C@@H](C)O [Ac-Arg-Thr-Lys-Ser-Arg-Thr(PO3^2−)-Tyr-Ala-Gly-NH2] (HELM PEPTIDE1{[ac].R.T.K.S.R.[C[C@@H](OP(=O)(O)O)[C@H](N[*:1])C(=O)[*:2]].Y.A.G.[am]}$$$$V2.0) |  | 2.34 µM
3 | CC(=O)N[C@@H](CCC(N)=O)C(=O)N[C@@H](CCCNC(=N)N)C(=O)N[C@@H](Cc1ccccc1)C(=O)N[C@@H](CC(N)=O)C(=O)N[C@@H](COP(=O)(O)O)C(=O)N[C@@H](C)C(=O)N1CCC[C@H]1C(=O)N[C@@H](C)C(=O)N[C@@H](CCCNC(=N)N)C(N)=O [Ac-Gln-Arg-Phe-Asn-Ser-(PO3^2−)-Ala-Pro-Ala-Arg-NH2] (HELM PEPTIDE1{[ac].Q.R.F.N.[O=C([C@H](COP(=O)(O)O)N[*:1])[*:2]].A.P.A.R.[am]}$$$$V2.0) |  | 8.29 µM
4 | CC(=O)N[C@@H](CCC(N)=O)C(=O)N[C@@H](CCCNC(=N)N)C(=O)N[C@@H](Cc1ccc(O)cc1)C(=O)N[C@@H](CC(N)=O)C(=O)N[C@@H](COP(=O)(O)O)C(=O)N[C@@H](C)C(=O)N1CCC[C@H]1C(=O)N[C@@H](C)C(=O)N[C@@H](CCCNC(=N)N)C(N)=O [Ac-Gln-Arg-Tyr-Asn-Ser-(PO3^2−)-Ala-Pro-Ala-Arg-NH2] (HELM PEPTIDE1{[ac].Q.R.Y.N.[O=C([C@H](COP(=O)(O)O)N[*:1])[*:2]].A.P.A.R.[am]}$$$$V2.0) |  | 9.34 µM
